US4330529A, “Antibacterial composition” (Fujisawa Pharmaceutical Co., Ltd., priority 1979, dated 1982)
Where two headings read alike, the source gives them in different places.

How the values were obtained:
[1] = tested on: Pseudomonas aeruginosa No.15; test: MIC and FIC, Nutrient agar, multiple inoculator (Test 4); assay type: cell-based; details: P. aeruginosa No.15, 10^8 cells/ml, 20 h
Procedure: (§1) After the incubation was carried out at 37° C. for 20 hours, MIC values were determined.
(§2) FIC values and FIC Index were calculated in substantially the same manner as described in Test 1.

[2] = tested on: Pseudomonas aeruginosa No.9; test: as above; assay type: cell-based; details: P. aeruginosa No.9, 10^8 cells/ml, 20 h
Procedure: as §1, §2

Proteus morganii 1433-2 = test: MIC and FIC, Nutrient agar (Tests 2, 3); assay type: cell-based; details: Morganella morganii, 14332; P. morganii 1433-2; 20 h
Procedure: as §1

[3] = tested on: Proteus vulgaris IAM-1025; test: MIC and FIC, Nutrient agar (Test 2); assay type: cell-based; details: IAM1025, P. vulgaris IAM-1025, 20 h
Procedure: as §1, §2

[4] = tested on: Pseudomonas aeruginosa No.14; test: MIC and FIC, Nutrient agar, multiple inoculator (Test 4); assay type: cell-based; details: P. aeruginosa No.14, 10^8 cells/ml, 20 h
Procedure: as §1, §2

Proteus rettgeri 1434-3 = test: MIC and FIC, Nutrient agar (Test 3); assay type: cell-based; details: Providencia rettgeri, 14343; P. rettgeri 1434-3; 20 h
Procedure: as §1, §2

Staphylococcus aureus 1 = test: MIC and FIC, Nutrient agar (Test 7); assay type: cell-based; details: S. aureus 1, 18 h
Procedure: as §2

[5] = tested on: Shigella flexneri Ia EW-8; test: MIC and FIC, Nutrient agar (Test 2); assay type: cell-based; details: IAEW8, S. flexneri Ia EW-8, 20 h
Procedure: as §1

[6] = tested on: Salmonella typhimurium 1406; test: MIC and FIC, Nutrient agar (Tests 2, 3); assay type: cell-based; details: Salmonella enterica, TYPHIMURIUM, 20 h
[7] = tested on: Pseudomonas aeruginosa No.12; test: MIC and FIC, Nutrient agar, multiple inoculator (Test 5); assay type: cell-based; details: Pseudomonas aeruginosa; P. aeruginosa No.12; 10^8 cells/ml, 20 h; read-out: MIC
Procedure: as §1, §2

[8] = tested on: Salmonella enteritidis 1891; test: MIC and FIC, Nutrient agar (Test 2); assay type: cell-based; details: Salmonella enterica; S. enteritidis 1891; 20 h
Procedure: as §1

Citrobacter freundii 35 = test: MIC and FIC, Nutrient agar (Tests 6, 7, 9); assay type: cell-based
Proteus mirabilis 48 = test: MIC and FIC, Nutrient agar (Test 7); assay type: cell-based; details: P. mirabilis 48, 18 h
Procedure: as §2

[9] = tested on: Pseudomonas aeruginosa 77; test: MIC and FIC, Nutrient agar (Test 7); assay type: cell-based; details: P. aeruginosa 77, 18 h
Procedure: as §2

[10] = tested on: Pseudomonas aeruginosa 1101-76; test: MIC and FIC, Nutrient agar (Test 3); assay type: cell-based; details: Pseudomonas aeruginosa, 110176, 20 h
Enterobacter cloacae 18 = test: MIC and FIC, Nutrient agar (Tests 7, 9); assay type: cell-based; details: E. cloacae 18, 18 h
Procedure: as §2

Staphylococcus aureus 3 = test: MIC and FIC, Nutrient agar (Tests 6, 7); assay type: cell-based; details: Staphylococcus aureus; S. aureus 3; 18 h; read-out: MIC
Procedure: as §2

Escherichia coli 82 = test: MIC and FIC, Nutrient agar (Test 7); assay type: cell-based; details: E. coli 82, 18 h
Procedure: as §2

[11] = tested on: Enterobacter aerogenes 1402-10; test: MIC and FIC, Nutrient agar (Tests 2, 3); assay type: cell-based; details: Klebsiella aerogenes, 140210, 20 h
[12] = tested on: Proteus mirabilis 1432-75; test: MIC and FIC, Nutrient agar (Tests 2, 3); assay type: cell-based; details: Proteus mirabilis, 143275, 20 h
Enterobacter aerogenes 7 = test: MIC and FIC, Nutrient agar (Tests 6, 7, 9); assay type: cell-based; details: Klebsiella aerogenes; E. aerogenes 7; 18 h; read-out: MIC
Procedure: as §2

[13] = tested on: Serratia marcescens 1421-4; test: MIC and FIC, Nutrient agar (Tests 2, 3); assay type: cell-based; details: Serratia marcescens, 14214, 20 h
Escherichia coli No.14 = test: MIC and FIC, Nutrient agar, multiple inoculator (Test 4); assay type: cell-based; details: E. coli No.14, 10^8 cells/ml, 20 h
Procedure: as §1

Klebsiella pneumoniae 8 = test: Isobologram, growth in Nutrient broth in various combination ratios (Test 8); assay type: cell-based; parameters: key: +: the test microorganism grew; -: the test microorganism did not grow; details: gentamicin sulfate 0
Procedure: After the incubation was carried out at 37° C. for 18 hours, the growth of the test organism was observed.

Citrobacter freundii 63 = test: MIC and FIC, Nutrient agar (Test 9); assay type: cell-based; details: C. freundii 63, 18 h
Procedure: as §2

[14] = tested on: Escherichia coli 1341-18R^+; test: MIC and FIC, Nutrient agar (Test 3); assay type: cell-based; details: 20 h
[15] = tested on: Salmonella paratyphi A-1015; test: MIC and FIC, Nutrient agar (Test 2); assay type: cell-based; details: Salmonella enterica; S. paratyphi A-1015; 20 h
Procedure: as §1, §2

Serratia marcescens 9 = test: MIC and FIC, Nutrient agar (Test 6); assay type: cell-based; details: Serratia marcescens; S. marcescens 9; 18 h; read-out: MIC
Procedure: as §2

[16] = tested on: Pseudomonas aeruginosa No.7; test: MIC and FIC, Nutrient agar, multiple inoculator (Test 4); assay type: cell-based; details: P. aeruginosa No.7, 10^8 cells/ml, 20 h
Procedure: as §1, §2

[17] = tested on: Enterobacter aerogenes 25; test: microbe, parasite or virus in culture; details: Klebsiella aerogenes, 25, 18 h
[18] = tested on: Klebsiella pneumoniae NCTC 418; test: MIC and FIC, Nutrient agar (Tests 2, 3); assay type: cell-based; details: NCTC418, K. pneumoniae NCTC 418, 20 h
Procedure: as §1

[19] = tested on: Pseudomonas aeruginosa 42; test: MIC and FIC, Nutrient agar (Test 7); assay type: cell-based; details: Pseudomonas aeruginosa; P. aeruginosa 42; 18 h; read-out: MIC
Procedure: as §2

Escherichia coli 99 = test: MIC and FIC, Nutrient agar (Test 6); details: Escherichia coli, 99, 18 h
Procedure: as §2

[20] = tested on: Pseudomonas aeruginosa No.18; test: MIC and FIC, Nutrient agar, multiple inoculator (Test 5); assay type: cell-based; details: Pseudomonas aeruginosa; P. aeruginosa No.18; 10^8 cells/ml, 20 h; read-out: MIC
Procedure: as §1, §2

[21] = tested on: Staphylococcus epidermidis 1601-1; test: MIC and FIC, Nutrient agar (Tests 2, 3); assay type: cell-based; details: 16011, S. epidermidis 1601-1, 20 h
Procedure: as §1

Escherichia coli 116 = test: MIC and FIC, Nutrient agar (Test 7); assay type: cell-based; details: E. coli 116, 18 h
Procedure: as §2

Staphylococcus aureus 2 = test: MIC and FIC, Nutrient agar (Test 7); assay type: cell-based; details: S. aureus 2, 18 h
Procedure: as §2

O=CN(O)CCCP(=O)(O)O [A (Table 2)]
≥ 400 µg/mL: MIC (Proteus morganii 1433-2) | MIC [21]
6.25 µg/mL: MIC [6] | MIC [9] | MIC [11] | MIC [14] | MIC [15]
800 µg/mL: MIC [7]
> 800 µg/mL: MIC [1] | MIC [2] | MIC [20]
100 µg/mL: MIC (Citrobacter freundii 35; C. freundii 35, 18 h, listed as A (Table 9)) | MIC (Citrobacter freundii 35; C. freundii 35, 18 h, listed as A (Table 10)) | MIC (Citrobacter freundii 35; Citrobacter freundii, 35, 18 h, C. freundii 35, 18 h) | MIC (Enterobacter cloacae 18; listed as A (Table 14)) | MIC (Escherichia coli 82) | MIC (Enterobacter aerogenes 7) | MIC [17]
+: growth of the test organism (Klebsiella pneumoniae 8; phosphonic acid salt 0.78 mcg/ml) | growth of the test organism (Klebsiella pneumoniae 8; phosphonic acid salt 1.56 mcg/ml) | growth of the test organism (Klebsiella pneumoniae 8; phosphonic acid salt 3.13 mcg/ml) | growth of the test organism (Klebsiella pneumoniae 8; phosphonic acid salt 6.25 mcg/ml) | growth of the test organism (Klebsiella pneumoniae 8; phosphonic acid salt 12.5 mcg/ml)
400 µg/mL: MIC [4] | MIC (Staphylococcus aureus 1) | MIC (Staphylococcus aureus 3)
50 µg/mL: MIC (Citrobacter freundii 35; Citrobacter freundii, 35, 18 h) | MIC [13] | MIC (Citrobacter freundii 63) | MIC [19]
200 µg/mL: MIC (Enterobacter cloacae 18; Enterobacter cloacae, read-out: MIC) | MIC (Serratia marcescens 9) | MIC [16] | MIC (Escherichia coli 116) | MIC (Staphylococcus aureus 2)
0.78 µg/mL: MIC [8]
1.56 µg/mL: MIC [3] | MIC (Proteus rettgeri 1434-3) | MIC [5] | MIC [10] | MIC [12]
25 µg/mL: MIC (Proteus mirabilis 48) | MIC (Escherichia coli No.14) | MIC [18] | MIC (Escherichia coli 99)
-: growth of the test organism (Klebsiella pneumoniae 8; phosphonic acid salt 25 mcg/ml)
